Data from article PMC11062922 (Nature Chemical Biology, 2023).
Several values for one entry are separate records, joined by “and”; a condition that tells them apart may be missing. Equal values may be shown once. One block for each molecule: values may come before it.

Key:
PRKCD = target: T1, PRKCD (Homo sapiens, UniProt Q05655); test: Kinobeads full dose-response competition binding: PRKCD; details: Gene Name PRKCD
T1 construct: endogenous in cells

PRKACG = target: T2, PRKACG (Homo sapiens, UniProt P22612); test: Kinobeads full dose-response competition binding: PRKACG; details: Gene Name PRKACG
T2 construct: endogenous in cells
T2 sequence (P22612 whole entry): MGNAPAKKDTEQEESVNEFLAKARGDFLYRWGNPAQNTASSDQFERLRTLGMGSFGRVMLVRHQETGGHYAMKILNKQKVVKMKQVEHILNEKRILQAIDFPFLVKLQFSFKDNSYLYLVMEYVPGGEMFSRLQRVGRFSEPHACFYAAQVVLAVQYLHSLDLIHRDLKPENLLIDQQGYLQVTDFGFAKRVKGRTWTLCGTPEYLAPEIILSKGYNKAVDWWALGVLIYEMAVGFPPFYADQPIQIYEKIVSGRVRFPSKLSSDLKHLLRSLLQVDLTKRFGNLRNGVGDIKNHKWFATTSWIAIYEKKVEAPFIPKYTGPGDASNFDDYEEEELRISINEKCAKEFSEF

EPHB2 = target: T3, EPHB2 (Homo sapiens, UniProt P29323); test: Kinobeads two-dose competition binding: EPHB2; details: read-out: Lestaurtinib Drugmatrix value, Gene Name EPHB2
T3 construct: endogenous in cells
T3 sequence (P29323 19-1055): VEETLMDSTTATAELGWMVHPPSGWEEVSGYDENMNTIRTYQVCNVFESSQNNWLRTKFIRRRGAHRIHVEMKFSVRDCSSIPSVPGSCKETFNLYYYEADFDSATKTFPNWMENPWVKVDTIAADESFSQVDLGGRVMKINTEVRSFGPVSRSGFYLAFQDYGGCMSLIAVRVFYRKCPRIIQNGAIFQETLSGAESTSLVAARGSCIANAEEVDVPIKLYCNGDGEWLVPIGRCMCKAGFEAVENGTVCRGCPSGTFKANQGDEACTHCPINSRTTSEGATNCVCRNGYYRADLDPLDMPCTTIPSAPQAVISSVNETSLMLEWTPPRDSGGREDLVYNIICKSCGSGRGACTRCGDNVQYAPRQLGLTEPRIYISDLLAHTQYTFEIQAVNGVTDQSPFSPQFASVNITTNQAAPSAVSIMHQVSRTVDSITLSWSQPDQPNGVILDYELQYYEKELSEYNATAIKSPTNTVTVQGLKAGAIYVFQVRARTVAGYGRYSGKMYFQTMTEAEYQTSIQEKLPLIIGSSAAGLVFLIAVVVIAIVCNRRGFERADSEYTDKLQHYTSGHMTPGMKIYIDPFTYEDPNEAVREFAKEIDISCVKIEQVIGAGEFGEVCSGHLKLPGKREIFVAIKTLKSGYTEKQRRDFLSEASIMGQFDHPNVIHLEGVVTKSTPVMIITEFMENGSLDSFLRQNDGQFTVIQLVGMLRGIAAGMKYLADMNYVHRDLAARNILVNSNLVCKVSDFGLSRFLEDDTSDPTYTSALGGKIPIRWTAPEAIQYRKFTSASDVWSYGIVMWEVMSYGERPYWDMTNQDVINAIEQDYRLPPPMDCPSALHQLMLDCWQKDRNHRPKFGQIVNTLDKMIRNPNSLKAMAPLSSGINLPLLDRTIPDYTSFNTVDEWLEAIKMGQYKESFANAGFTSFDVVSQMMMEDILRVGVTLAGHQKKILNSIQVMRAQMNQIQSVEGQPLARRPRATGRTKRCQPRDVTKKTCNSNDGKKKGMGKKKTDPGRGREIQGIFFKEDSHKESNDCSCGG

ERCC2 = test: Kinobeads two-dose competition binding: ERCC2; parameters: species or system human; details: read-out: Lestaurtinib Drugmatrix value, Gene Name ERCC2; target ERCC2; each column = one Lestaurtinib control replicate (batch_R1-R3)
EPHB1 = target: T4, EPHB1 (Homo sapiens, UniProt P54762); test: Kinobeads two-dose competition binding: EPHB1; details: read-out: Lestaurtinib Drugmatrix value, Gene Name EPHB1; target EPHB1; each column = one Lestaurtinib control replicate (batch_R1-R3)
T4 construct: endogenous in cells
T4 sequence (P54762 18-984): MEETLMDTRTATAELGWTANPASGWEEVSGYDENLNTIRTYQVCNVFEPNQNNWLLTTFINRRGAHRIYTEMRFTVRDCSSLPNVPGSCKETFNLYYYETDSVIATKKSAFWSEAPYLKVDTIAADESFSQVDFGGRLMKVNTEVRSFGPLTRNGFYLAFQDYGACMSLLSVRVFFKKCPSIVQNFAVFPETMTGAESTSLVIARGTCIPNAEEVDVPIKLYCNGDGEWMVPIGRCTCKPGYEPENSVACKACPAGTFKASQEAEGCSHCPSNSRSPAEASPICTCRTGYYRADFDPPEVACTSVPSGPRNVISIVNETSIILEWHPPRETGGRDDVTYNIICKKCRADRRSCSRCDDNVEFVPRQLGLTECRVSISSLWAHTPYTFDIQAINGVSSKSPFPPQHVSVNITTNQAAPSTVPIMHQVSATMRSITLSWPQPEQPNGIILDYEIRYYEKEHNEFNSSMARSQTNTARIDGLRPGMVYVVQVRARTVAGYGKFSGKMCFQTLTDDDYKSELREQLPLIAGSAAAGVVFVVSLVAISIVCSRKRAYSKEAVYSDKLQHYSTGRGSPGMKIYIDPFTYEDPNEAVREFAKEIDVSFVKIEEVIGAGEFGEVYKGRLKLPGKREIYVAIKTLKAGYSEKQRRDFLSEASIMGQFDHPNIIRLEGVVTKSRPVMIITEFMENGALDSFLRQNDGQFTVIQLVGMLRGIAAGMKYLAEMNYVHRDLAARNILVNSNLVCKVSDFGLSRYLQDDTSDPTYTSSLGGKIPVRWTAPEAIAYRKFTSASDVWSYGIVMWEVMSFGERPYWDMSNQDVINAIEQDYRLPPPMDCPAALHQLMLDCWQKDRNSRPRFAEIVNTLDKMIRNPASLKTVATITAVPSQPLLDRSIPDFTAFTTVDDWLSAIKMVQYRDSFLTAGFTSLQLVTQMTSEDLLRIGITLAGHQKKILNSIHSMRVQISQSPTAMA

RIPK3 = target: T5, RIPK3 (Homo sapiens, UniProt Q9Y572); test: Kinobeads full dose-response competition binding: RIPK3; details: Gene Name RIPK3
T5 construct: endogenous in cells
T5 sequence (Q9Y572 whole entry): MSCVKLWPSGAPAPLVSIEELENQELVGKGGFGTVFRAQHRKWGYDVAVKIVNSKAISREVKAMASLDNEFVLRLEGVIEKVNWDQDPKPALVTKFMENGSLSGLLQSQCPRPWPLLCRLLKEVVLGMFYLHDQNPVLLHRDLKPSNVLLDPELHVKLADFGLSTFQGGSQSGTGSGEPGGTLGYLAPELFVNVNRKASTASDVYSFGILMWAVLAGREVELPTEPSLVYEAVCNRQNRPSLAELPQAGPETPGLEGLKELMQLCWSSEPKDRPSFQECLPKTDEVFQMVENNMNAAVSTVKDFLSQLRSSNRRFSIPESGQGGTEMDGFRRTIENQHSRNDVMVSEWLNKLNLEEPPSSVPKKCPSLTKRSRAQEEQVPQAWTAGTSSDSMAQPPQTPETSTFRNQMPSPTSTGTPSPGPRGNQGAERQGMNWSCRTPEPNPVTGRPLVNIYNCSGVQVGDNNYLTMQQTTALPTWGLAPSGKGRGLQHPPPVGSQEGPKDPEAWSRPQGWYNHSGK

[1] = EC50 with Correction, doses in nM, read-out: apparent Kd
[2] = eight-dose curve fit, doses in nM

T1 sequence (Q05655 whole entry): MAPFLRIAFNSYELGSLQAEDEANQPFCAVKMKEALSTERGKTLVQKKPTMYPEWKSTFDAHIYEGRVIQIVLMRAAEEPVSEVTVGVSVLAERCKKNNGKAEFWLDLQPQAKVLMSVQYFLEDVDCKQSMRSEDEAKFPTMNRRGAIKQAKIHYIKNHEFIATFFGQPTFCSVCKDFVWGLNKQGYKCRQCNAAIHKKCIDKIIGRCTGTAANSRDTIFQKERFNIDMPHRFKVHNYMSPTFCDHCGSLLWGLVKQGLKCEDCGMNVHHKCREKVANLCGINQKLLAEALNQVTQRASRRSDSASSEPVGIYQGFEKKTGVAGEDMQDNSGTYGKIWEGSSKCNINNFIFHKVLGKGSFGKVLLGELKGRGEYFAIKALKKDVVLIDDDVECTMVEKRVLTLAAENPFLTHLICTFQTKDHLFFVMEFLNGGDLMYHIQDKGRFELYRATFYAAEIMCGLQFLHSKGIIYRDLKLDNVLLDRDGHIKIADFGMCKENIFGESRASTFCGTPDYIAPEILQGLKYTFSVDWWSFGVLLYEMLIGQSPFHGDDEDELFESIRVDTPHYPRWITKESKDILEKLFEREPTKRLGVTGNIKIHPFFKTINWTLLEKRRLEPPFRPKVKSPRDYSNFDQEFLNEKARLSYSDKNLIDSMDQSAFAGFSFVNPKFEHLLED

Relative Intensity 0.3nM (PRKCD; 0.3nM compound, DMSO = 1): 0.9769
Relative Intensity 1nM (PRKCD; 1nM compound, DMSO = 1): 1.01
Relative Intensity 3nM (PRKCD; 3nM compound, DMSO = 1): 1.114
Relative Intensity 10nM (PRKCD; 10nM compound, DMSO = 1): 1.044
Relative Intensity 30nM (PRKCD; 30nM compound, DMSO = 1): 0.8254
Relative Intensity 100nM (PRKCD; 100nM compound, DMSO = 1): 0.6161
Relative Intensity 300nM (PRKCD; 300nM compound, DMSO = 1): 0.3888
Relative Intensity 1000nM (PRKCD; 1000nM compound, DMSO = 1): 0.1734
Kd (PRKCD; [1]): 124 nM
EC50 (PRKCD; [2]): 124 nM
Structure (SMILES): CCn1c(-c2nonc2N)nc2c(C#CC(C)(C)O)nc(OCCN)cc21 [GSK902056A]

Structure (SMILES): CCn1c(-c2nonc2N)nc2c(C#CC(C)(C)O)nc(OCCNC)cc21 [GSK949675A]
Relative Intensity 0.3nM (PRKACG; 0.3nM compound, DMSO = 1): 0.6931
Relative Intensity 1nM (PRKACG; 1nM compound, DMSO = 1): 0.8057
Relative Intensity 3nM (PRKACG; 3nM compound, DMSO = 1): 0.9707
Relative Intensity 10nM (PRKACG; 10nM compound, DMSO = 1): 0.8006
Relative Intensity 30nM (PRKACG; 30nM compound, DMSO = 1): 0.7952
Relative Intensity 100nM (PRKACG; 100nM compound, DMSO = 1): 0.9305
Relative Intensity 300nM (PRKACG; 300nM compound, DMSO = 1): 0.645
Relative Intensity 1000nM (PRKACG; 1000nM compound, DMSO = 1): 0.4141
Kd (PRKACG; [1]): 262 nM
EC50 (PRKACG; [2]): 303 nM

Structure (SMILES): C[C@]12O[C@H](C[C@]1(O)CO)n1c3ccccc3c3c4c(c5c6ccccc6n2c5c31)CNC4=O [Lestaurtinib]
potency estimated from few doses (EPHB2): 257 nM
potency estimated from few doses (ERCC2): 161 nM and 261 nM
potency estimated from few doses (EPHB1): 403 nM

Structure (SMILES): NCc1ccc(-c2nc(-c3ccncc3)c(-c3ccc(Cl)c(O)c3)[nH]2)cc1 [SB-476429-A]
Relative Intensity 0.3nM (RIPK3; 0.3nM compound, DMSO = 1): 1.0435
Relative Intensity 1nM (RIPK3; 1nM compound, DMSO = 1): 1.078
Relative Intensity 3nM (RIPK3; 3nM compound, DMSO = 1): 1.023
Relative Intensity 10nM (RIPK3; 10nM compound, DMSO = 1): 0.8405
Relative Intensity 30nM (RIPK3; 30nM compound, DMSO = 1): 0.9631
Relative Intensity 100nM (RIPK3; 100nM compound, DMSO = 1): 1.023
Relative Intensity 300nM (RIPK3; 300nM compound, DMSO = 1): 0.7216
Relative Intensity 1000nM (RIPK3; 1000nM compound, DMSO = 1): 0.4701
Kd (RIPK3; [1]): 289 nM
EC50 (RIPK3; [2]): 296 nM
